Here are results for 21 molecules from patent EP0354693A1, “Therapeutic agents” (The Boots Company PLC, priority 1988, dated 1990).

Each structure is given as a SMILES string.

The subject of this assay is BALB/c mice. Kind of assay: cutaneous hypersensitivity test (CH test), oxazolone-induced ear swelling. The note with it: Mus musculus, ip; intraperitoneal, at sensitisation and every 24 hours for a further 7 days; lowest dose used giving 20% or greater reduction in ear swelling (p <0.05) in two out of three CH tests; read-out: Minimum Effective Dose. It counts as in vivo. Here is the method:
This test was carried out in the following way.
Female BALB/c mice, weight range 16-24 g, were used in groups of eight. The abdomen of each mouse was shaved and 20 µl of a solution of a sensitising agent, 5% w/v 4-ethoxymethylene-2-phenyl-2-oxazolin-5-one (oxazolone) in acetone:ethanol (1:1 by volume), was applied to the shaved area. Immediately after sensitisation, the test compound in one of the dosages listed below was injected intraperitoneally as a suspension in 1.5% v/v sorbitan esters, under the trade name Tween 80, in sterile water (100µl). 100 µl of the same suspension was injected likewise every 24 hours for a further 7 days. The dosages used were selected from the following values: 50, 30, 10, 3, 1, 0.3, 0.1, 0.03 or 0.01 mg/kg.
Two groups of eight BALB/c mice were used as a control simultaneously with each test in a similar manner to that described above except that no test compound was included in the daily injections.
On the seventh day after sensitisation, 10 µl of a solution of 1% w/v oxazolone in acetone: olive oil (either 1:1 or 3:1 by volume) was applied to one ear (the challenged ear) of each of the test mice and the control mice. After 24 hours the thickness of the challenged ear and the thickness of the non-challenged ear of the same animal were measured with an engineer's screw gauge micrometer. The difference in thickness between the challenged ear and the non-challenged ear in each animal is a measure of the response of that animal to oxazolone. A comparison between the response of mice treated with the test compound and mice treated with the control indicates the effectiveness of the test compound as an immunomodulatory agent. The compounds were considered to be active at a particular dose if a 20% or greater reduction in ear swelling, which was statistically significant (p <0.05) according to Dunnett's test, between treated and control groups was obtained in two out of three CH tests, (or, where more than three tests have been carried out, a majority of the tests) at that dose (see for example Int. Arch. Allergy, 38, p246-259 (1970)).
Each of the compounds of formula I illustrated in Table A below was active at 50 mg/kg in two out of three tests at 50 mg/kg unless indicated otherwise (see Notes following the Table). The minimum effective dose (ie the lowest dose of those used at which the compound is active as defined above) for each compound is given in Table A. The Example (Ex) number or numbers listed adjacent to each compound indicates the process or processes illustrating the preparation of that compound in the Examples.
In the case of `Cc1oc2ccccc2c2nn(-c3cccc(Cl)c3)c(=O)c1-2` [Example 38, 2-(3-chlorophenyl)-4-methyl[1]benzo-pyrano[4,3-c]pyrazol-3(2H)-one], the minimal effective dose was found to be 3 mg/kg. Regarding `CCc1oc2ccccc2c2nn(-c3ccc(Cl)cc3)c(=O)c1-2` [Example 40, 2-(4-chlorophenyl)-4-ethyl[1]benzo-pyrano[4,3-c]pyrazol-3(2H)-one], the minimal effective dose is 50 mg/kg. In the case of `CCOC(=O)Cc1oc2ccccc2c2nn(-c3ccc(F)cc3)c(=O)c1-2` [Example 53, ethyl 2-(4-fluorophenyl)-3-oxo-2,3-dihydro[1]benzopyrano[4,3-c]pyrazole-4-acetate] it was 3 mg/kg. Turning to `Cc1oc2ccccc2c2nn(-c3ccc(C(F)(F)F)cc3)c(=O)c1-2` [Example 47, 4-methyl-2-(4-trifluoromethylphenyl)-[1]benzopyrano[4,3-c]pyrazol-3(2H)-one], the minimal effective dose was 1 mg/kg. For `Cc1oc2ccccc2c2nn(-c3ccc(Cl)c(Cl)c3)c(=O)c1-2` [Example 36, 2-(3,4-dichlorophenyl)-4-methyl[1]-benzopyrano[4,3-c]pyrazol-3(2H)-one], the minimal effective dose stood at 0.3 mg/kg. In the case of `Cc1oc2cc(F)ccc2c2nn(-c3ccc(Cl)cc3)c(=O)c1-2` [Example 48, 2-(4-chlorophenyl)-7-fluoro-4-methyl-[1]benzopyrano[4,3-c]pyrazol-3(2H)-one] it was 50 mg/kg; in that of `Cc1ccc(-n2nc3c4ccccc4oc(C)c-3c2=O)cc1` [Example 43, 4-methyl-2-(4-methylphenyl)[1]benzo-pyrano[4,3-c]pyrazol-3(2H)-one], 10 mg/kg. Consider `Cc1oc2ccccc2c2nn(-c3ccc(Br)cc3)c(=O)c1-2` [Example 44, 2-(4-bromophenyl)-4-methyl[1]benzo-pyrano[4,3-c]pyrazol-3(2H)-one], for which the minimal effective dose was determined as 1 mg/kg. Take `Cc1oc2ccccc2c2nn(-c3ccccc3)c(=O)c1-2` [Example 42, 4-methyl-2-phenyl[1]benzopyrano-[4,3-c]pyrazol-3(2H)-one]: the minimal effective dose stood at 50 mg/kg. Regarding `Cc1oc2ccccc2c2nn(-c3ccc(F)c(Cl)c3)c(=O)c1-2` [Example 45, 2-(3-chloro-4-fluorophenyl)-4-methyl-[1]benzopyrano[4,3-c]pyrazol-3(2H)-one], the minimal effective dose turned out to be 0.3 mg/kg. For `Cc1ccc2oc(C)c3c(=O)n(-c4ccc(Cl)cc4)nc-3c2c1` [Example 50, 2-(4-chlorophenyl)-4,8-dimethyl[1]-benzopyrano[4,3-c]pyrazol-3(2H)-one], the minimal effective dose was 50 mg/kg. In the case of `CCOC(=O)Cc1oc2ccccc2c2nn(-c3ccc(Cl)cc3)c(=O)c1-2` [Example 41, ethyl 2-(4-chlorophenyl)-3-oxo-2,3-dihydro[1]benzopyrano[4,3-c]pyrazole-4-acetate] it was 3 mg/kg; in that of `Cc1oc2ccccc2c2nn(-c3ccc(F)cc3)c(=O)c1-2` [Example 37, 2-(4-fluorophenyl)-4-methyl[1]benzo-pyrano[4,3-c]pyrazol-3(2H)-one], 1 mg/kg; in that of `Cc1oc2cccc(C)c2c2nn(-c3ccc(Cl)cc3)c(=O)c1-2` [Example 52, 2-(4-chlorophenyl)-4,9-dimethyl[1]-benzopyrano[4,3-c]pyrazol-3(2H)-one], 50 mg/kg. In the case of `Cc1oc2ccc(F)cc2c2nn(-c3ccc(Cl)cc3)c(=O)c1-2` [Example 54, 2-(4-chlorophenyl)-8-fluoro-4-methyl-[1]benzopyrano[4,3-c]pyrazol-3(2H)-one] it was 0.1 mg/kg; in that of `Cc1oc2ccc(O)cc2c2nn(-c3ccc(Cl)cc3)c(=O)c1-2` [Example 56, 2-(4-chlorophenyl)-8-hydroxy-4-methyl-[1]benzopyrano[4,3-c]pyrazol-3(2H)-one], 50 mg/kg; in that of `Cc1oc2ccc(Cl)cc2c2nn(-c3ccc(Cl)cc3)c(=O)c1-2` [Example 49, 8-chloro-2-(4-chlorophenyl)-4-methyl-[1]benzopyrano[4,3-c]pyrazol-3(2H)-one], 50 mg/kg. As to `Cc1oc2cc(Cl)ccc2c2nn(-c3ccc(Cl)cc3)c(=O)c1-2` [Example 55, 7-chloro-2-(4-chlorophenyl)-4-methyl-[1]benzopyrano[4,3-c]pyrazol-3(2H)-one], the minimal effective dose stood at 50 mg/kg.

With `Cc1ccc(-n2nc3c4ccccc4oc(C)c-3c2=O)cc1Cl` [Example 46, 2-(3-chloro-4-methylphenyl)-4-methyl-[1]benzopyrano[4,3-c]pyrazol-3(2H)-one], the minimal effective dose came out at 3 mg/kg. In the case of `COc1ccc(-n2nc3c4ccccc4oc(C)c-3c2=O)cc1` [Example 39, 2-(4-methoxyphenyl)-4-methyl[1]benzo-pyrano[4,3-c]pyrazol-3(2H)-one] it was 50 mg/kg; in that of `COc1cccc2oc(C)c3c(=O)n(-c4ccc(Cl)cc4)nc-3c12` [Example 51, 2-(4-chlorophenyl)-9-methoxy-4-methyl-[1]benzopyrano[4,3-c]pyrazol-3(2H)-one], 50 mg/kg.
